What was measured:
Assay in all cases: in vitro susceptibility, MIC by mini broth dilution
Type in all cases: cell-based
[1] = tested on: Actinobacillus pleuropneumoniae CVCC262; details: strain CVCC262
Procedure: (§1) in vitro tests of susceptibility of the compounds according to the present disclosure against bacterial strains commonly used in laboratories. In accordance with the Performance Standards for Antimicrobial Disk Susceptibility Tests: Approved Standard published by the US National Committee for Clinical Laboratory Standards, the antibacterial activities of compounds prepared according to examples 5 to 187 were tested. The MICs (minimum inhibitory concentration) of the medicaments prepared according to the examples on the following bacterial strains were measured through mini broth dilution technique. Staphylococcus aureus CVCC26003, Streptococcus equines CVCC556. Actinobacillus pleuropneumoniae CVCC262, Haemophilus parasuis, and Pasteurella multocida CVCC399, which were purchased from the Control Institute of Veterinary Bioproducts and Pharmaceuticals, China. 4.1.2 Culture Media for the Rest Four Bacterial Strains. Liquid culture medium: […] Solid culture medium: […] The strains were taken out of a refrigerator at −20° C. to be revived, and were spreaded by streaking on the solid culture medium with an inoculating loop. The inoculated culture medium was cultured at 35° C. in a constant temperature incubator for 20 h. […] were selected from a well-grown culture plate and streaked on the solid culture medium. The inoculated culture medium was cultured at 35° C. in the constant temperature incubator for 20 h. […] A 96-well plate was used, and 100 μl of DMSO was added into each of wells 2 to 11, and 200 μl of ready-prepared medicament solution was added into the 1st well, 100 μl of the medicament solution was extracted from the 1st well and added into the 2nd well. Double dilution was performed until the 11th well, thereby forming 11 gradients. In this case, compound of parent plate was prepared. 3 μl of double diluted medicament solution was extracted with a 12-channel pipettor and added into wells 1-11 of a new disposable 96-well culture plate. The 12th well thereof is a control well. For each medicament, there are two adjacent rows which are parallel. The transferred compound plate was reserved for later use. […] The dilution ratio was recorded, and the bacterial liquid for the tests was diluted according to the recorded dilution ratio. Subsequently, the bacterial suspension and the liquid culture medium were diluted in the proportion of 1:200. The diluted solution was reserved for later use.

Haemophilus parasuis = tested on: Haemophilus parasuis
Procedure: as §1

[2] = tested on: Streptococcus equines CVCC556; details: strain CVCC556
Procedure: as §1

[3] = tested on: Pasteurella multocida CVCC399; details: strain CVCC399
Procedure: as §1

[4] = tested on: Staphylococcus aureus CVCC26003; details: strain CVCC26003
Procedure: in vitro tests of susceptibility of the compounds according to the present disclosure against bacterial strains commonly used in laboratories. In accordance with the Performance Standards for Antimicrobial Disk Susceptibility Tests: Approved Standard published by the US National Committee for Clinical Laboratory Standards, the antibacterial activities of compounds prepared according to examples 5 to 187 were tested. The MICs (minimum inhibitory concentration) of the medicaments prepared according to the examples on the following bacterial strains were measured through mini broth dilution technique. Staphylococcus aureus CVCC26003, Streptococcus equines CVCC556. Actinobacillus pleuropneumoniae CVCC262, Haemophilus parasuis, and Pasteurella multocida CVCC399, which were purchased from the Control Institute of Veterinary Bioproducts and Pharmaceuticals, China. 4.1.1 Culture Medium for Staphylococcus aureus CVCC26003 Liquid culture medium: CAMHB. […] Solid culture medium: NINA prepared according to the specification of the final product. The strains were taken out of a refrigerator at −20° C. to be revived, and were spreaded by streaking on the solid culture medium with an inoculating loop. The inoculated culture medium was cultured at 35° C. in a constant temperature incubator for 20 h. […] were selected from a well-grown culture plate and streaked on the solid culture medium. The inoculated culture medium was cultured at 35° C. in the constant temperature incubator for 20 h. […] A 96-well plate was used, and 100 μl of DMSO was added into each of wells 2 to 11, and 200 μl of ready-prepared medicament solution was added into the 1st well, 100 μl of the medicament solution was extracted from the 1st well and added into the 2nd well. Double dilution was performed until the 11th well, thereby forming 11 gradients. In this case, compound of parent plate was prepared. 3 μl of double diluted medicament solution was extracted with a 12-channel pipettor and added into wells 1-11 of a new disposable 96-well culture plate. The 12th well thereof is a control well. For each medicament, there are two adjacent rows which are parallel. The transferred compound plate was reserved for later use. […] The dilution ratio was recorded, and the bacterial liquid for the tests was diluted according to the recorded dilution ratio. Subsequently, the bacterial suspension and the liquid culture medium were diluted in the proportion of 1:200. The diluted solution was reserved for later use.

Structure (SMILES) | MIC values, Actinobacillus pleuropneumoniae CVCC262 [1] | MIC values, Haemophilus parasuis (Haemophilus parasuis) | MIC values, Streptococcus equines CVCC556 [2] | MIC values, Pasteurella multocida CVCC399 [3] [ug/mi] | MIC values, Staphylococcus aureus CVCC26003 [4] [ug/mi]
CC[C@H]1OC(=O)[C@H](C)[C@@H](O[C@H]2C[C@@](C)(OC)[C@](O)(CNCCCCl)[C@H](C)O2)[C@H](C)[C@@H](O[C@@H]2O[C@H](C)C[C@H](N(C)C)[C@H]2O)[C@](C)(O)C[C@@H](C)NC[C@H](C)[C@@H](O)[C@]1(C)O [syzx-75, (2R,3S,4R,5S,8R,10R,11R,12S,13S,14R)-13-[(2,6-dideoxy-3-C-methyl-3-O-methyl-4-C-[(3-chloropropyl-amino)-methyl]-α-L-ribopyranosyl)oxy]-2-ethyl-3,4,10-trihydroxy-3,5,8,10,12,14-hexamethyl-11-[[3,4,6-trideoxy-3-(dimethylamino)-β-D-xylo-hexopyranosy]oxy]-1-oxa-7-azacyclopentadecan-15-one] | 64 ug/mi | 4 ug/mi | 4 ug/mi | 8 | 4
CCCN1C[C@H](C)[C@@H](O)[C@](C)(O)[C@@H](CC)OC(=O)[C@H](C)[C@@H](O[C@H]2C[C@@](C)(OC)[C@](O)(CNOCc3ccccc3)[C@H](C)O2)[C@H](C)[C@@H](O[C@@H]2O[C@H](C)C[C@H](N(C)C)[C@H]2O)[C@](C)(O)C[C@H]1C [syzx-182] | 0.5 ug/mi | 0.5 ug/mi | 0.5 ug/mi | 4 | 1
CCCN1C[C@H](C)[C@@H](O)[C@](C)(O)[C@@H](CC)OC(=O)[C@H](C)[C@@H](O[C@H]2C[C@@](C)(OC)[C@](O)(CNC(=O)C(F)(F)F)[C@H](C)O2)[C@H](C)[C@@H](O[C@@H]2O[C@H](C)C[C@H](N(C)C)[C@H]2O)[C@](C)(O)C[C@H]1C [syzx-215] | 0.25 ug/mi | 0.25 ug/mi | 0.25 ug/mi | 0.5 | 0.25
CCCN1C[C@H](C)[C@@H](O)[C@](C)(O)[C@@H](CC)OC(=O)[C@H](C)[C@@H](O[C@H]2C[C@@](C)(OC)[C@](O)(CN(CC)CC)[C@H](C)O2)[C@H](C)[C@@H](O[C@@H]2O[C@H](C)C[C@H](N(C)C)[C@H]2O)[C@](C)(O)C[C@H]1C [syzx-103] | 0,25 ug/mi | 0.25 ug/mi | 0.25 ug/mi | 1 | 0.25
CC[C@H]1OC(=O)[C@H](C)[C@@H](O[C@H]2C[C@@](C)(OC)[C@](O)(CNCCCC(=O)O)[C@H](C)O2)[C@H](C)[C@@H](O[C@@H]2O[C@H](C)C[C@H](N(C)C)[C@H]2O)[C@](C)(O)C[C@@H](C)NC[C@H](C)[C@@H](O)[C@]1(C)O [syzx-42, (2R,3S,4R,5S,8R,10R,11R,12S,13S,14R)-13-[(2,6-dideoxy-3-C-methyl-3-O-methyl-4-C-[[butyrate-4-amino]-methyl]-α-L-ribopyranosyl)oxy]-2-ethyl-3,4,10-trihydroxy-3,5,8,10,12,14-hexamethyl-11-[[3,4,6-trideoxy-3-(dimethylamino)-β-D-xylo-hexopyranosy]oxy]-1-oxa-7-azacyclopentadecan-15-one] | 1 ug/mi | 1 ug/mi | 1 ug/mi | 2 | 2
C#CC=C(C)NC[C@]1(O)[C@H](C)O[C@@H](O[C@H]2[C@H](C)[C@@H](O[C@@H]3O[C@H](C)C[C@H](N(C)C)[C@H]3O)[C@](C)(O)C[C@@H](C)NC[C@H](C)[C@@H](O)[C@](C)(O)[C@@H](CC)OC(=O)[C@@H]2C)C[C@@]1(C)OC [syzx-62] | 8 ug/mi | ≦0.25 ug/mi | ≦0.25 ug/mi | 0.5 | 0.5
C#CCNC[C@]1(O)[C@H](C)O[C@@H](O[C@H]2[C@H](C)[C@@H](O[C@@H]3O[C@H](C)C[C@H](N(C)C)[C@H]3O)[C@](C)(O)C[C@@H](C)NC[C@H](C)[C@@H](O)[C@](C)(O)[C@@H](CC)OC(=O)[C@@H]2C)C[C@@]1(C)OC [syzx-40, (2R,3S,4R,5S,8R,10R,11R,12S,13S,14R)-13-[(2,6-dideoxy-3-C-methyl-3-O-methyl-4-C-[[propargyl-amino]-methyl]-α-L-ribopyranosyl)oxy]-2-ethyl-3,4,10-trihydroxy-3,5,8,10,12,14-hexamethyl-11-[[3,4,6-trideoxy-3-(dimethylamino)-β-D-xylo-hexopyranosy]oxy]-1-oxa-7-azacyclopentadecan-15-one] | 16 ug/mi | 0.5 ug/mi | 0.5 ug/mi | 1 | 0.5
CCC1OC(=O)C(C)C(OC2CC(C)(OC)C(O)(CNCc3ccc(C)o3)C(C)O2)C(C)C(OC2OC(C)CC(N(C)C)C2O)C(C)(O)CC(C)NCC(C)C(O)C1(C)O [syzx-78, (2R,3S,4R,5S,8R,10R,11R,12S,13S,14R)-13-[(2,6-dideoxy-3-C-methyl-3-O-methyl-4-C-[(5-methylfurfurylamino)-methyl]-α-L-ribopyranosyl)oxy]-2-ethyl-3,4,10-trihydroxy-3,5,8,10,12,14-hexamethyl-11-[[3,4,6-trideoxy-3-(dimethylamino)-β-D-xylo-hexopyranosy]oxy]-1-oxa-7-azacyclopentadecan-15-one] | 2 ug/mi | 0.25 ug/mi | 0.25 ug/mi | 0.5 | 0.25
CC[C@H]1OC(=O)[C@H](C)[C@@H](O[C@H]2C[C@@](C)(OC)[C@](O)(CNCc3ccc(OC)cc3)[C@H](C)O2)[C@H](C)[C@@H](O[C@@H]2O[C@H](C)C[C@H](N(C)C)[C@H]2O)[C@](C)(O)C[C@@H](C)NC[C@H](C)[C@@H](O)[C@]1(C)O [syzx-18, (2R,3S,4R,5S,8R,10R,11R,12S,13S,14R)-13-[(2,6-dideoxy-3-C-methyl-3-O-methyl-4-C-[(4-methoxybenzylamino)methyl]-α-L-ribopyranosyl)oxy]-2-ethyl-3,4,10-trihydroxy-3,5,8,10,12,14-hexamethyl-11-[[3,4,6-trideoxy-3-(dimethylamino)-β-D-xylo-hexopyranosy]oxy]-1-oxa-7-azacyclopentadecan-15-one] | 16 ug/mi | 0.5 ug/mi |  | 2 | 0.5
